# Patent publication US4742049A, “Semisynthetic erythromycin antibiotics” (Abbott Laboratories, priority 1986, dated 1988)
# Like-named read-outs stand apart in the source and are kept apart here.
# Legend:
# [1] = test system: Klebsiella pneumoniae; assay: antimicrobial spectrum, agar dilution MIC; type: cell-based; conditions: strain 8045, BHI agar, 20-24 hours
# [2] = test system: Pseudomonas cepacia; assay: antimicrobial spectrum, agar dilution MIC; type: cell-based; conditions: Burkholderia cepacia, strain 2961; BHI agar, 20-24 hours; read-out: MIC
# Method: Erythromycin A was used for this purpose.
# After incubation, each disk is read.
# [3] = test system: Micrococcus luteus; assay: antimicrobial spectrum, agar dilution MIC; type: cell-based; conditions: 20-24 hours
# [4] = test system: Ent. aerogenes; assay: antimicrobial spectrum, agar dilution MIC; type: cell-based; conditions: Klebsiella aerogenes, ATCC10348, strain ATCC 10348; BHI agar, 20-24 hours
# [5] = test system: gut contractions (stomach, duodenum, jejunum); conditions: dog, in vivo, iv, 4 mg/kg
# Method: Compounds of this invention have been tested for gastrointestinal stimulating activity in a dog model at 4 mg/kg intravenously. Contractions in the gut were recorded with surgically implanted strain gauges. […] Ratios were calculated for the stomach, duodenum and jejunum, and a final arithmetic mean index was calculated and reported in Table 1.
# [6] = test system: E. coli; assay: antimicrobial spectrum, agar dilution MIC; type: cell-based; conditions: Escherichia coli, BHI agar, 20-24 hours
# [7] = test system: Acinetobacter SP; assay: antimicrobial spectrum, agar dilution MIC; type: cell-based; conditions: strain CMX 669, BHI agar, 20-24 hours
# [8] = test system: Staph. aureus NCTC 10649; assay: acute mouse protection test; conditions: for ED50: Staphylococcus aureus, NCTC10649, in Mus musculus, 168 h, dosed 1 and 5 hours post-infection, observed 7 days; for # Died: ten mice
# Method: The acute mouse protection test is conducted on ten mice with each of three levels of drug.
# The acute mouse protection test is conducted on female, Swiss albino mice, 18-20 grams in weight. The mice are injected intraperitoneally with an 18-hour culture of the indicated test organism diluted sufficiently to provide the desired LD50 value. To check the potency of the inoculum, a titration of the indicated test organism is carried out in control animals. […] The ED50 values are calculated using the mortality data collected.
# [9] = test system: Staph. saprophyticus; assay: microbe, parasite or virus in culture; conditions: Staphylococcus saprophyticus, ATCC15305
# Method: Twelve petri dishes containing successive aqueous dilutions of the test compound mixed with 10 ml of sterilized Brain Heart Infusion agar (Difco 0418-01-5) are prepared. Each plate is inoculated with 1:100 (or 1:10 for slow-growing strains, primarily Micrococcus and Streptococcus) dilutions of up to 32 different microorganisms, using a Steers replicator block. The inoculated plates are incubated at 35°-37° C. for 20-24 hours. In addition, a control plate, using BHI agar containing no test compound, is prepared and incubated at the beginning and end of each test.
# An additional plate containing a compound having known susceptibility patterns for the organisms being tested and belonging to the same antibiotic class as the test compound is also prepared and incubated as a further control, as well as to provide test-to-test comparability.
# After incubation, each disk is read. The MIC is defined as the lowest concentration of drug yielding no growth, a slight haze, or sparsely isolated colonies on the inoculum spot as compared to the growth control.
# [10] = test system: Pseudomonas aeruginosa; assay: antimicrobial spectrum, agar dilution MIC; type: cell-based; conditions: Pseudomonas aeruginosa, BHI agar, 20-24 hours
# Outline: (§1)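 Successive aqueous dilutions of compound in Brain Heart Infusion agar, spot-inoculated by replicator with 1:100 (1:10 for slow-growing strains) organism dilutions and incubated 20-24 h at 35°-37° C. MIC taken as lowest concentration giving no growth, slight haze, or sparse isolated colonies versus drug-free control.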
# [11] = test system: Providencia stuartii; assay: antimicrobial spectrum, agar dilution MIC; type: cell-based; conditions: strain CMX 640, BHI agar, 20-24 hours
# Outline: as §1
# [12] = test system: Strep. pneumoniae; assay: antimicrobial spectrum, agar dilution MIC; type: cell-based; conditions: Streptococcus pneumoniae
# Outline: as §1
# [13] = test system: Strep. agalactiae; assay: antimicrobial spectrum, agar dilution MIC; type: cell-based; conditions: Streptococcus agalactiae, BHI agar, 20-24 hours
# Outline: as §1
# [14] = test system: Strep. pyogenes; assay: antimicrobial spectrum, agar dilution MIC; type: cell-based; conditions: Streptococcus pyogenes, BHI agar, 20-24 hours
# Outline: as §1
# [15] = test system: Strep. bovis; assay: antimicrobial spectrum, agar dilution MIC; type: cell-based; conditions: Streptococcus equinus, strain A5169; BHI agar, 20-24 hours
# Outline: as §1
# [16] = test system: Strep. faecium; assay: antimicrobial spectrum, agar dilution MIC; type: cell-based; conditions: Enterococcus faecium, ATCC8043, strain ATCC 8043; BHI agar, 20-24 hours
# Outline: as §1
# [17] = test system: Strep. faecalis; assay: antimicrobial spectrum, agar dilution MIC; type: cell-based; conditions: Enterococcus faecalis, BHI agar, 20-24 hours
# Outline: as §1
# [18] = test system: Staph. epidermidis; assay: antimicrobial spectrum, agar dilution MIC; type: cell-based; conditions: Staphylococcus epidermidis, BHI agar, 20-24 hours
# Outline: as §1
# [19] = test system: Staph. aureus; assay: antimicrobial spectrum, agar dilution MIC; type: cell-based; conditions: Staphylococcus aureus, BHI agar, 20-24 hours
# Outline: as §1
# [20] = test system: Lactobacillus Casei; assay: antimicrobial spectrum, agar dilution MIC; type: cell-based; conditions: Lacticaseibacillus casei, ATCC7469, strain ATCC 7469; BHI agar, 20-24 hours
smiles,measurement,setting,value
"CC[C@H]1OC(=O)[C@H](C)[C@@H](O[C@H]2C[C@@](C)(OC)[C@@H](O)[C@H](C)O2)[C@H](C)[C@@H](O[C@@H]2O[C@H](C)C[C@H](N(C)C)[C@H]2O)[C@](C)(OC)C[C@@H](C)C(=O)[C@H](C)[C@H]2NC(=O)O[C@@]21C [Example 2, 11-deoxy-6-O-methyl erythromycin A 11,12 cyclic carbamate]",MIC,[1],50 µg/mL
same,MIC,[2],25 µg/mL
same,MIC,"[3]; strain 4698, BHI agar",0.39 µg/mL
same,MIC,"[3]; strain 9341, BHI agar",0.05 µg/mL
same,MIC,[4],100 µg/mL
same,Gastrointestinal Motility Index,[5],1.18
same,MIC,[6]; strain DC-2,50 µg/mL
same,MIC,[6]; strain H560,3.1 µg/mL
same,MIC,[6]; strain JUHL,50 µg/mL
same,MIC,[6]; strain KNK 437,25 µg/mL
same,MIC,[6]; strain SS,0.39 µg/mL
same,MIC,[7],6.2 µg/mL
same,ED50,"[8]; po, dosage medium Carboxymethylcellulose",45.2 mg/kg
same,ED50,"[8]; po, dosage medium PBS",34.4 mg/kg
same,ED50,"[8]; sc, subcutaneous, dosage medium Injectable solution",5 mg/kg
same,# Died,"[8]; oral, Carboxymethylcellulose, 9.4 mg/kg",10
same,# Died,"[8]; oral, Carboxymethylcellulose, 62.5 mg/kg",7
same,# Died,"[8]; oral, Carboxymethylcellulose, 150.0 mg/kg",0
same,# Died,"[8]; oral, PBS, 9.4 mg/kg",10
same,# Died,"[8]; oral, PBS, 62.5 mg/kg",7
same,# Died,"[8]; oral, PBS, 150.0 mg/kg",0
same,# Died,"[8]; subcutaneous, Injectable solution, 2.5 mg/kg",9
same,# Died,"[8]; subcutaneous, Injectable solution, 10.0 mg/kg",1
same,# Died,"[8]; subcutaneous, Injectable solution, 40.0 mg/kg",0
same,MIC,[9],0.03 µg/mL
same,MIC,[10]; strain 5007,100 µg/mL
same,MIC,[10]; strain BMH10,50 µg/mL
same,MIC,[10]; strain K799/61,1.56 µg/mL
same,MIC,[10]; strain K799/WT,50 µg/mL
same,MIC,[11],> 100 µg/mL
same,MIC,[12],16 µg/mL
same,MIC,"[12]; strain CMX 635, BHI agar, 20-24 hours",0.004 µg/mL
same,MIC,"[12]; strain CMX 698, BHI agar, 20-24 hours",0.004 µg/mL
same,MIC,[13]; strain CMX 508,0.01 µg/mL
same,MIC,[13]; strain CMX 633,0.015 µg/mL
same,MIC,[14]; strain 930,> 100 µg/mL
same,MIC,[14]; strain C203,0.004 µg/mL
same,MIC,[14]; strain EES61,0.05 µg/mL
same,MIC,"[14]; strain M79061-98, read-out: MIC",0.25 µg/mL
same,MIC,[14]; strain M79061-139,0.004 µg/mL
same,MIC,[14]; strain M79061-140,0.004 µg/mL
same,MIC,[15],0.02 µg/mL
same,MIC,[16],0.05 µg/mL
same,MIC,[17]; strain A-5168,> 128 µg/mL
same,MIC,[17]; strain CMX 663F,0.5 µg/mL
same,MIC,"[17]; strain CMX 729G, read-out: MIC",0.12 µg/mL
same,MIC,"[17]; strain CMX 736F, read-out: MIC",0.06 µg/mL
same,MIC,"[17]; strain GYR 1164, read-out: MIC",0.12 µg/mL
same,MIC,"[17]; strain GYR 1166, read-out: MIC",0.06 µg/mL
same,MIC,"[17]; strain GYR 1167, read-out: MIC",0.12 µg/mL
same,MIC,[18]; strain 3519,0.05 µg/mL
same,MIC,[18]; strain 3519 RARI,0.05 µg/mL
same,MIC,[18]; strain CMX 724G,> 128 µg/mL
same,MIC,[18]; strain CMX 728,0.03 µg/mL
same,MIC,[18]; strain CMX 729h,> 128 µg/mL
same,MIC,[18]; strain GYR 1151,0.03 µg/mL
same,MIC,"[19]; ATCC6538P, strain ATCC 6538P",0.1 µg/mL
same,MIC,"[19]; ATCC25923, strain ATCC 25923",0.015 µg/mL
same,MIC,"[19]; NCTC10649, strain NCTC 10649, read-out: MIC",0.06 µg/mL
same,MIC,[19]; strain 45,0.1 µg/mL
same,MIC,[19]; strain 45 RAR 2,0.2 µg/mL
same,MIC,[19]; strain 642A,0.03 µg/mL
same,MIC,[19]; strain A5177,0.39 µg/mL
same,MIC,[19]; strain A-5278,> 128 µg/mL
same,MIC,[19]; strain CMX 686B,0.1 µg/mL
same,MIC,[19]; strain CMX 705,0.015 µg/mL
same,MIC,[19]; strain CMX 730A,0.015 µg/mL
same,MIC,[19]; strain CMX 739A,0.015 µg/mL
same,MIC,[19]; strain GYR 1150,0.03 µg/mL
same,MIC,[19]; strain GYR 1162,0.03 µg/mL
same,MIC,[20],0.05 µg/mL
